Consider 9 molecules from the NIST ThermoML archive (doi:10.1021/je201116t).

For data set [1] the following is noted: 101 kPa, Liquid; for viscosity: Capillary tube (Ostwald / Ubbelohde) method.
The nature of data set [2]: xn = mol fraction of the nth substance listed. The conditions noted are these: 101 kPa, Liquid, x1 = 1; for viscosity: Capillary tube (Ostwald / Ubbelohde) method.

± gives the expanded uncertainty stated by the source.

What is called mass density is the mass of a sample divided by its volume. As usually defined, the viscosity is the internal friction of a fluid under shear. Take `CCCO` [propan-1-ol]: the mass density in data set [1] (298.15 K) was 799.557 ± 1.3 kg/m3; in data set [1] (303.15 K) it was 795.543 ± 1.3 kg/m3; in data set [1] (308.15 K), 791.479 ± 1.4 kg/m3; in data set [1] (313.15 K), 787.371 ± 1.4 kg/m3. Also, the viscosity in data set [1] (298.15 K) worked out at 1.941 ± 0.024 mPa·s; in data set [1] (303.15 K), 1.728 ± 0.021 mPa·s; in data set [1] (308.15 K), 1.545 ± 0.019 mPa·s; in data set [1] (313.15 K), 1.385 ± 0.017 mPa·s.
With `CCCCO` [butan-1-ol] + CCC(=O)[O-].CC[NH+]1CCNCC1, the viscosity in data set [2] (298.15 K) is reported as 2.577 ± 0.032 mPa·s; in data set [2] (303.15 K), 2.272 ± 0.029 mPa·s; in data set [2] (308.15 K), 2.01 ± 0.025 mPa·s; in data set [2] (313.15 K), 1.786 ± 0.023 mPa·s. For the same molecule, the mass density in data set [2] (298.15 K) is recorded as 805.814 ± 1.3 kg/m3; in data set [2] (303.15 K) it was 801.996 ± 1.3 kg/m3; in data set [2] (308.15 K), 798.13 ± 1.4 kg/m3; in data set [2] (313.15 K) it was 794.226 ± 1.4 kg/m3.
With `CCO` [ethanol] + CCC(=O)[O-].CC[NH+]1CCNCC1, the viscosity stood at 1.091 ± 0.013 mPa·s in data set [2] (298.15 K), 0.9986 ± 0.012 mPa·s in data set [2] (303.15 K), 0.9139 ± 0.011 mPa·s in data set [2] (308.15 K) and 0.8387 ± 0.01 mPa·s in data set [2] (313.15 K). Besides, the mass density in data set [2] (298.15 K) is 785.499 ± 1.4 kg/m3; in data set [2] (303.15 K) it was 781.197 ± 1.4 kg/m3; in data set [2] (308.15 K) it was 776.853 ± 1.4 kg/m3; in data set [2] (313.15 K), 772.468 ± 1.5 kg/m3.
Turning to `CO` [methanol] + CCC(=O)[O-].CC[NH+]1CCNCC1, the viscosity in data set [2] (298.15 K) was 0.558 ± 0.0068 mPa·s; in data set [2] (303.15 K), 0.5261 ± 0.0065 mPa·s; in data set [2] (308.15 K), 0.4966 ± 0.0061 mPa·s; in data set [2] (313.15 K), 0.4702 ± 0.0058 mPa·s. In addition, the mass density in data set [2] (298.15 K) worked out at 786.686 ± 1.4 kg/m3; in data set [2] (303.15 K), 781.993 ± 1.4 kg/m3; in data set [2] (308.15 K), 777.249 ± 1.4 kg/m3; in data set [2] (313.15 K), 772.475 ± 1.5 kg/m3.
For the molecule `CCC(=O)[O-].CC[NH+]1CCNCC1` [N-ethylpiperazinium propionate], the mass density is on record as 1008.36 ± 1.2 kg/m3 in data set [1] (298.15 K), 1004.38 ± 1.2 kg/m3 in data set [1] (303.15 K), 1000.33 ± 1.2 kg/m3 in data set [1] (308.15 K) and 996.237 ± 1.2 kg/m3 in data set [1] (313.15 K). Besides, the viscosity in data set [1] (298.15 K) was found to be 243.49 ± 7.6 mPa·s; in data set [1] (303.15 K), 164.81 ± 4.6 mPa·s; in data set [1] (308.15 K), 113.44 ± 2.7 mPa·s; in data set [1] (313.15 K) it was 80.93 ± 1.8 mPa·s.
As for `CO` [methanol], the mass density in data set [1] (298.15 K) is recorded as 786.686 ± 1.4 kg/m3; in data set [1] (303.15 K) it was 781.993 ± 1.4 kg/m3; in data set [1] (308.15 K) it was 777.249 ± 1.4 kg/m3; in data set [1] (313.15 K), 772.475 ± 1.5 kg/m3. Also, the viscosity amounted to 0.558 ± 0.0068 mPa·s in data set [1] (298.15 K), 0.5261 ± 0.0065 mPa·s in data set [1] (303.15 K), 0.4966 ± 0.0061 mPa·s in data set [1] (308.15 K) and 0.4702 ± 0.0058 mPa·s in data set [1] (313.15 K).
Take `CCO` [ethanol]: the mass density is on record as 785.499 ± 1.4 kg/m3 in data set [1] (298.15 K), 781.197 ± 1.4 kg/m3 in data set [1] (303.15 K), 776.853 ± 1.4 kg/m3 in data set [1] (308.15 K) and 772.468 ± 1.5 kg/m3 in data set [1] (313.15 K). Further, the viscosity in data set [1] (298.15 K) was 1.091 ± 0.013 mPa·s; in data set [1] (303.15 K), 0.9986 ± 0.012 mPa·s; in data set [1] (308.15 K) it was 0.9139 ± 0.011 mPa·s; in data set [1] (313.15 K), 0.8387 ± 0.01 mPa·s.
With `CCCO` [propan-1-ol] + CCC(=O)[O-].CC[NH+]1CCNCC1, the viscosity was 1.941 ± 0.024 mPa·s in data set [2] (298.15 K), 1.728 ± 0.021 mPa·s in data set [2] (303.15 K), 1.545 ± 0.019 mPa·s in data set [2] (308.15 K) and 1.385 ± 0.017 mPa·s in data set [2] (313.15 K). Also, the mass density in data set [2] (298.15 K) was found to be 799.557 ± 1.3 kg/m3; in data set [2] (303.15 K) it was 795.543 ± 1.3 kg/m3; in data set [2] (308.15 K), 791.479 ± 1.4 kg/m3; in data set [2] (313.15 K) it was 787.371 ± 1.4 kg/m3.
For `CCCCO` [butan-1-ol], the mass density in data set [1] (298.15 K) was found to be 805.814 ± 1.3 kg/m3; in data set [1] (303.15 K) it was 801.996 ± 1.3 kg/m3; in data set [1] (308.15 K) it was 798.13 ± 1.4 kg/m3; in data set [1] (313.15 K), 794.226 ± 1.4 kg/m3. Further, the viscosity was 2.577 ± 0.032 mPa·s in data set [1] (298.15 K), 2.272 ± 0.029 mPa·s in data set [1] (303.15 K), 2.01 ± 0.025 mPa·s in data set [1] (308.15 K) and 1.786 ± 0.023 mPa·s in data set [1] (313.15 K).
